Experimental data reported in publication PMC6850446, “In vivo inactivation of glycosidases by conduritol B epoxide and cyclophellitol as revealed by activity‐based protein profiling” (The Febs Journal, 2019).
Where two headings read alike, the source gives them in different places.

How the values were obtained:
[1] = biological target: T1, GBA3 (Homo sapiens, UniProt Q9H227); assay: intact cells treated, residual activity in lysate supernatant with 4MU-glucoside; assay type: cell-based
T1 construct: human GBA3 overexpressed in HEK293T; expected 45-53 kDa
T1 sequence (Q9H227 1-469): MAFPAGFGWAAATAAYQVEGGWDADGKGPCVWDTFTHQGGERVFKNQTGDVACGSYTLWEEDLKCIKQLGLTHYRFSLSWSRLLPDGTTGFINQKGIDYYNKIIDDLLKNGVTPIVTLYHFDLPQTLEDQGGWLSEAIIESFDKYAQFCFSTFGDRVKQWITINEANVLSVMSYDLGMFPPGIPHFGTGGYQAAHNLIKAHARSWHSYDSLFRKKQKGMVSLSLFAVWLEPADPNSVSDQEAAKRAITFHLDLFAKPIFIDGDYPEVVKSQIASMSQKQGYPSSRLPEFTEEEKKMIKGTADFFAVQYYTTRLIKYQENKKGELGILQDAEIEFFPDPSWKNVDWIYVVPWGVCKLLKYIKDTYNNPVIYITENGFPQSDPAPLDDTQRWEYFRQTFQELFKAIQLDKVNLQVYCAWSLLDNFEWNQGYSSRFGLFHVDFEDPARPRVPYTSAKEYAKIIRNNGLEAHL
Source text: intact cells treated, residual activity in lysate supernatant with 4MU-glucoside on GBA3

[2] = biological target: T2, GBA (HEK293T cells) (Homo sapiens, UniProt P04062); assay: intact cells treated, residual activity in lysate with 4MU-glucoside; assay type: cell-based; conditions: covalent, 24 h treatment of intact HEK293T cells, assay pH 5.2 with 25 nM AMP-DNM to block GBA2
T2 construct: gene GBA1; endogenous lysosomal enzyme in HEK293T cells that stably express human GBA2; 58-66 kDa on gel
T2 sequence (P04062 40-536): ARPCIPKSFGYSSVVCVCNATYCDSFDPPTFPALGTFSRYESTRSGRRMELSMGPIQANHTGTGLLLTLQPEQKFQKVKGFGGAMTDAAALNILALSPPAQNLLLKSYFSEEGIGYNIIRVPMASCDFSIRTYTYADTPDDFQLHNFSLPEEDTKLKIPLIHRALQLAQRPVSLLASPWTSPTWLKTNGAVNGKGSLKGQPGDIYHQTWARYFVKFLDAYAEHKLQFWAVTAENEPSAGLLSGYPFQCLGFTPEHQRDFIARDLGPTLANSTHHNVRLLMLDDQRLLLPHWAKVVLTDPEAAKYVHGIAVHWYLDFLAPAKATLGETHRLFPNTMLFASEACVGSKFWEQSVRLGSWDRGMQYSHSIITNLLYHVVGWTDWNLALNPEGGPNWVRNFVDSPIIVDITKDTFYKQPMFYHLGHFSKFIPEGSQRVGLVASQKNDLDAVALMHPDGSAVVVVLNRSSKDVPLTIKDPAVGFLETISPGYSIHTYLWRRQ
Source text: intact cells treated, residual activity in lysate with 4MU-glucoside on GBA (HEK293T cells)

[3] = biological target: T3, GBA2 (nonlysosomal glucosylceramidase) (Homo sapiens, UniProt Q9HCG7); assay: as above; assay type: cell-based
T3 construct: human GBA2 stably expressed in HEK293T; 110 kDa on gel
T3 sequence (Q9HCG7 1-927): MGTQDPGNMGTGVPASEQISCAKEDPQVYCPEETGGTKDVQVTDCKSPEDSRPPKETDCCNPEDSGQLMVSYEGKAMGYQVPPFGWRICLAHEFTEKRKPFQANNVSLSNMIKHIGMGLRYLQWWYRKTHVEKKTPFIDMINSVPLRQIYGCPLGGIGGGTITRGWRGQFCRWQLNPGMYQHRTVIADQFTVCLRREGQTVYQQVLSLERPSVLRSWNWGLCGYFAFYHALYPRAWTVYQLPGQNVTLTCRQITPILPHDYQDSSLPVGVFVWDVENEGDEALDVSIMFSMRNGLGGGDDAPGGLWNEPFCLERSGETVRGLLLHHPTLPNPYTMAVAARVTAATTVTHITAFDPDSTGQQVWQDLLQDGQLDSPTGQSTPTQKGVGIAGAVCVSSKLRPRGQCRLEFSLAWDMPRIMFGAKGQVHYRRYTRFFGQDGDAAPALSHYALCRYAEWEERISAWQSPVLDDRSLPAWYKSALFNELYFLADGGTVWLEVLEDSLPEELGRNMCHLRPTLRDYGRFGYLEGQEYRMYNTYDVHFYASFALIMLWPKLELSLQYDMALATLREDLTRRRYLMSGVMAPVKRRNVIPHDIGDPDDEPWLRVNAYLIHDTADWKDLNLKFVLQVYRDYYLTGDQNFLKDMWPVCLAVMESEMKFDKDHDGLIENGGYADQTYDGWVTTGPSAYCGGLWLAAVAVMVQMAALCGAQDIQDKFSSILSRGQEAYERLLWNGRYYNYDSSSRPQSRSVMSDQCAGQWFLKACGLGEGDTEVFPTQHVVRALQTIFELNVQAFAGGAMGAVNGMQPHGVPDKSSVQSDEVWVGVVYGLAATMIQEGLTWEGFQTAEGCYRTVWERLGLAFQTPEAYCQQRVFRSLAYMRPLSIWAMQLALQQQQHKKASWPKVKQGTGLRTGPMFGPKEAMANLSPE
Source text: intact cells treated, residual activity in lysate with 4MU-glucoside on GBA2 (nonlysosomal glucosylceramidase)

[4] = biological target: T4, GBA (zebrafish larvae) (Danio rerio, UniProt E7EZM1); assay: live larvae exposed, residual activity in lysate with 4MU-glucoside; conditions: covalent, in vivo: concentration in egg water, 5 days at 28.5 °C, assay pH 5.2 with AMP-DNM
T4 construct: gene gba1; endogenous enzyme in larvae, measured in larval lysate
T4 sequence (E7EZM1 20-518): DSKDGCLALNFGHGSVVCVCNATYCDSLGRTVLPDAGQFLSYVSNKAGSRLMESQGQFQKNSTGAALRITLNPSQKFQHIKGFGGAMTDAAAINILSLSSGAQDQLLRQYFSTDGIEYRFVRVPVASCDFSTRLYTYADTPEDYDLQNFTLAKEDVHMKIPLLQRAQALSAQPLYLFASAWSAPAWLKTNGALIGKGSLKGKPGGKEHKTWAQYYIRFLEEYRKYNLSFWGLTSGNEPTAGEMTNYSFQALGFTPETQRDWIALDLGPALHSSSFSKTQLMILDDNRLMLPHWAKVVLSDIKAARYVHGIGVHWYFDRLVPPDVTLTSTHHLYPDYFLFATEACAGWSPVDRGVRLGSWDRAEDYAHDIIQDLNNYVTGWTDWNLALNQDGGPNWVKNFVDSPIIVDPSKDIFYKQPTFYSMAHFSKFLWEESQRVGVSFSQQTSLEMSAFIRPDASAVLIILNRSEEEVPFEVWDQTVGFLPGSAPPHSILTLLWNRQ
Source text: live larvae exposed, residual activity in lysate with 4MU-glucoside on GBA (zebrafish larvae)

IC50 ([1]; read-out: CBE / Enz. assay) [nM]	IC50 ([2]; read-out: CBE / Enz. assay) [nM]	IC50 ([3]; read-out: CBE / Enz. assay) [nM]	IC50 ([4]; read-out: CBE / Enz. assay) [nM]	Structure (SMILES)	IC50 ([1]; read-out: CP / Enz. assay) [nM]	IC50 ([2]; read-out: CP / Enz. assay) [nM]	IC50 ([3]; read-out: CP / Enz. assay) [nM]	IC50 ([4]; read-out: CP / Enz. assay) [nM]
474000	331	272000	58500	OC1C(O)C(O)C2OC2C1O (centres unmarked) [compound 1, conduritol B epoxide]	–	–	–	–
–	–	–	–	OC[C@@H]1[C@@H](O)[C@H](O)[C@@H](O)[C@@H]2O[C@H]12 [compound 2, cyclophellitol]	> 10000	86	198	130
